Test results as given in patent US11896586B2, “Apixaban formulations” (Bristol-Myers Squibb Company, priority 2018, dated 2024).

Assay: Dissolution of apixaban in SLD coating solvent, monitored in situ by UV probe
Type: physicochemical
Description: Three aliquots of ethanol were dispensed. Apixaban was added to the first portion (1464 g) with stirring. This suspension was then added to a 20 L mixing vessel. To ensure complete API transfer, the remaining aliquots of ethanol (two aliquots of approximately 2600 g each) were used to rinse the suspension container surfaces and were subsequently added to the 20 L mixing vessel in step-wise fashion. The apixaban/ethanol solution was stirred using an overhead mixer at approximately 500 rpm for 50 minutes. Dissolution of apixaban in ethanol was monitored in-situ using a UV probe (absorbance range 278-282 nm, 2 mm tip opening, measure rate 1 s^−1).

- Time to full dissolution of apixaban (ethanol, measured at 0.15 mgA/mL, UV 278-282 nm): less than 10 minutes
- Time to full dissolution of apixaban (ethanol/water/HPMC solution, apparent concentration 0.21 mgA/g, UV 280 nm): less than 10 minutes
SMILES: COc1ccc(-n2nc(C(N)=O)c3c2C(=O)N(c2ccc(N4CCCCC4=O)cc2)CC3)cc1 [apixaban, 1-(4-methoxyphenyl)-7-oxo-6-[4-(2-oxo-1-piperidinyl)phenyl]-4,5,6,7-tetrahydro-1H-pyrazolo[3,4-c]pyridine-3-carboxamide]
